Paper PMC9053591 (RSC Advances, 2020)
Where “and” joins values, the source holds several entries; their conditions need not be identical. Equal values may be shown once. Where a name gives a salt, the structure may show the parent alone.

Key:
[1] = system: SH-SY5Y cells; experiment: Neuroprotection against H2O2-induced death, MTT assay; settings: 200 μM H2O2 for 24 h
[2] = target: AChE (Electrophorus electricus, UniProt O42275); experiment: Kinetic characterization of AChE inhibition, Lineweaver–Burk plot; assay type: biochemical; settings: Lineweaver–Burk reciprocal plots; compound at 2, 6 and 8 μM
AChE, sequence (O42275 24-633): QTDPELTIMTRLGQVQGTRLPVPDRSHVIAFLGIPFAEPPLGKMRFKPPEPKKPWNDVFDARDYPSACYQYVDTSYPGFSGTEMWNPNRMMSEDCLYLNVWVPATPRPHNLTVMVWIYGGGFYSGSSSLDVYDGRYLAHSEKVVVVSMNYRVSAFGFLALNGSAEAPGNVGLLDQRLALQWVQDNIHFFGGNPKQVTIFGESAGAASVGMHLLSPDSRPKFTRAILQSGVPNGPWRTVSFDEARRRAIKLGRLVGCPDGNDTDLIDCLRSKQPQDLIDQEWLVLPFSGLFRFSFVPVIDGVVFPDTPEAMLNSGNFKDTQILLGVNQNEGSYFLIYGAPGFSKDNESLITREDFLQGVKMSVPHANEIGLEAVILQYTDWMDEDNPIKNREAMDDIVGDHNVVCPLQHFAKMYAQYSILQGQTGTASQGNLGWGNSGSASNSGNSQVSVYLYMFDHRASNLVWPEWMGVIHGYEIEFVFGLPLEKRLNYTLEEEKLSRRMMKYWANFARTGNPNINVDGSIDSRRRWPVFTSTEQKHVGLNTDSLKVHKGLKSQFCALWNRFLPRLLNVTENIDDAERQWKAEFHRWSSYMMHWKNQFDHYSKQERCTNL

[3] = system: scopolamine induced mice model of dementia; experiment: Elevated plus maze; assay type: in vivo; settings: n = 6, SEM
[4] = system: scopolamine induced mice; experiment: Social recognition test, scopolamine induced mice; assay type: in vivo
[5] = target: AChE from electric eel (Electrophorus electricus, UniProt O42275); experiment: AChE inhibition, Ellman's method; assay type: biochemical; settings: IC50 ± SD (μM) AChE, means ± SD of three experiments
AChE from electric eel, sequence (O42275 24-633): as above

[6] = In vitro cytotoxicity, MTT assay; assay type: cell-based, human; settings: human, SH-SY5Y cells
[7] = system: SH-SY5Y cells; experiment: In vitro cytotoxicity, MTT assay; assay type: cell-based, human; settings: 1 and 5 μM, 24 h, MTT
[8] = target: T1, Aβ1-42 (Homo sapiens, UniProt P05067); experiment: TEM study of inhibition of Aβ1-42 fibril formation; assay type: biochemical; settings: Aβ1-42 50 μM, compound 50 μM, 37 °C, 48 h
T1 sequence (P05067 672-713): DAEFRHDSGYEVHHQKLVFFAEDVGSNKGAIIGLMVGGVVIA

[9] = target: BuChE from equine serum (Equus caballus, UniProt P81908); experiment: BuChE inhibition, Ellman's method; assay type: biochemical
BuChE from equine serum, sequence (P81908 whole entry): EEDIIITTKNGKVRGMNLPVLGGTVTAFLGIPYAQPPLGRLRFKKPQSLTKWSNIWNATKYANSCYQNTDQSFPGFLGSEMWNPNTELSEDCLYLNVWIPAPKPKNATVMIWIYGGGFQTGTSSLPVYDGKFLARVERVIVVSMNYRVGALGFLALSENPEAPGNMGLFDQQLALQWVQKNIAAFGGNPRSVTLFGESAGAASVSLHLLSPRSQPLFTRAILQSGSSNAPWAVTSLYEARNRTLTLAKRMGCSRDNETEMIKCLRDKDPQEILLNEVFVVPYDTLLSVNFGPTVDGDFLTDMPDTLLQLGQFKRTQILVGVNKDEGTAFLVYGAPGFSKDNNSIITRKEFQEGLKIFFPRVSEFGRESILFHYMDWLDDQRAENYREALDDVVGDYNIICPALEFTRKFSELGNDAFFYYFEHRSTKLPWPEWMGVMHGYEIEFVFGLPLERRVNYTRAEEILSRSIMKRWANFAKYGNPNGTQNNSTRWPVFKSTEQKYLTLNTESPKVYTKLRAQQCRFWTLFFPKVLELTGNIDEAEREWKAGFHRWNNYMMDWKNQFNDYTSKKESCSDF

[10] = target: T1, Aβ1-42; experiment: Confocal laser scanning microscopy of Aβ1-42 aggregation inhibition; assay type: biochemical; settings: Aβ1-42 co-incubated with compound, 48 h, 37 °C

Structure (SMILES)	IC50 [5]	IC50 [9]	further results
OO [Compound H2O2, hydrogen peroxide]	–	–	Cell viability with H2O2 alone [1]: 54.90%
CS(=O)(=O)c1ccc2nc(NC(=O)CCN3CCN(c4ccccn4)CC3)sc2c1 [Compound 12, N-(6-Methanesulfonyl-benzothiazol-2-yl)-3-(4-pyridin-2-yl-piperazin-1-yl)-propionamide]	2.31 µM and 2.32 µM	> 100 µM	Type of AChE inhibition [2]: uncompetitive type of inhibition; Transfer latency (TL) ([3]; scopolamine 3 mg kg−1 + compound 10 mg kg−1 i.p., 7 days): 12.81 ± 2.08 s; Transfer latency (TL) ([3]; scopolamine 3 mg kg−1 + compound 20 mg kg−1 i.p., 7 days): 12.62 ± 2.60 s; T2/T1 ratio (second interaction trial/first interaction trial) ([4]; scopolamine + compound 20 mg kg−1, mean SEM of 6 animals): 0.377 ± 0.00072; viability at 24 h, 10 µM [6]: > 67%; Cytotoxicity [7]: no cytotoxicity; Aβ1-42 fibril formation by TEM [8]: small dissociated aggregates and no characteristic fibrils of Aβ1-42; Aβ1-42 aggregation by confocal laser scanning microscopy (ThT fluorescence) [10]: proficiently prevents Aβ1-42 fibril formation
CS(=O)(=O)c1ccc2nc(NC(=O)CCN3CCN(c4ccccc4)CC3)sc2c1 [Compound 4, N-(6-Methanesulfonyl-benzothiazol-2-yl)-3-(4-phenyl-piperazin-1-yl)-propionamide]	24.1 ± 0.721 µM	> 100 µM	–
CS(=O)(=O)c1ccc2nc(NC(=O)CCN3CCN(Cc4ccc5c(c4)OCO5)CC3)sc2c1 [Compound 16, 3-(4-Benzo[1,3]dioxol-5-ylmethyl-piperazin-1-yl)-N-(6-methanesulfonyl-benzothiazol-2-yl)-propionamide]	5.24 µM	> 100 µM	–
COc1ccc(N2CCN(CCC(=O)Nc3nc4ccc(S(C)(=O)=O)cc4s3)CC2)cc1 [Compound 9, N-(6-Methanesulfonyl-benzothiazol-2-yl)-3-[4-(4-methoxy-phenyl)-piperazin-1-yl]-propionamide]	14.5 ± 1.03 µM	> 100 µM	–
CN1[C@@H]2C[C@@H](OC(=O)[C@H](CO)c3ccccc3)C[C@H]1[C@@H]1O[C@@H]12 [scopolamine, Scopolamine hydrobromide, reference compound]	–	–	Transfer latency (TL) ([3]; scopolamine 3 mg kg−1 i.p. alone, retention trial): 22.00 ± 0.81 s; T2/T1 ratio (second interaction trial/first interaction trial) ([4]; scopolamine 3 mg kg−1 alone, mean SEM of 6 animals): 1.103 ± 0.037
COc1cc(/C=C/C(=O)CC(=O)/C=C/c2ccc(O)c(OC)c2)ccc1O [Curcumin, reference compound]	–	–	Aβ1-42 fibril formation by TEM [8]: small dissociated aggregates and no characteristic fibrils of Aβ1-42
CS(=O)(=O)c1ccc2nc(NC(=O)CCN3CCN(c4ccc(C(F)(F)F)cc4)CC3)sc2c1 [Compound 17, N-(6-Methanesulfonyl-benzothiazol-2-yl)-3-[4-(4-trifluoromethyl-phenyl)-piperazin-1-yl]-propionamide]	26.4 ± 0.551 µM	> 100 µM	–
CS(=O)(=O)c1ccc2nc(NC(=O)CCN3CCN(c4ncccn4)CC3)sc2c1 [Compound 13, N-(6-Methanesulfonyl-benzothiazol-2-yl)-3-(4-pyrimidin-2-yl-piperazin-1-yl)-propionamide]	10.9 ± 0.657 µM	> 100 µM	–
CS(=O)(=O)c1ccc2nc(NC(=O)CCN3CCN(Cc4ccccc4)CC3)sc2c1 [Compound 10, 3-(4-Benzyl-piperazin-1-yl)-N-(6-methanesulfonyl-benzothiazol-2-yl)-propionamide]	7.83 µM	> 100 µM	–
CS(=O)(=O)c1ccc2nc(NC(=O)CCN3CCN(C(=O)c4ccco4)CC3)sc2c1 [Compound 14, 3-[4-(Furan-2-carbonyl)-piperazin-1-yl]-N-(6-methanesulfonyl-benzothiazol-2-yl)-propionamide]	14.6 ± 0.438 µM	> 100 µM	–
CS(=O)(=O)c1ccc2nc(NC(=O)CCN3CCN(c4ccc(Cl)cc4)CC3)sc2c1 [Compound 6, 3-[4-(4-Chloro-phenyl)-piperazin-1-yl]-N-(6-methanesulfonyl-benzothiazol-2-yl)-propionamide]	13 ± 0.813 µM	> 100 µM	–
CS(=O)(=O)c1ccc2nc(NC(=O)CCN3CCN(C(=O)OCc4ccccc4)CC3)sc2c1 [Compound 15, 4-[2-(6-Methanesulfonyl-benzothiazol-2-ylcarbamoyl)-ethyl]-piperazine-1-carboxylic acid benzyl ester]	19.5 ± 0.452 µM	> 100 µM	–
CS(=O)(=O)c1ccc2nc(NC(=O)CCN3CCN(c4ccc([N+](=O)[O-])cc4)CC3)sc2c1 [Compound 7, N-(6-Methanesulfonyl-benzothiazol-2-yl)-3-[4-(4-nitro-phenyl)-piperazin-1-yl]-propionamide]	11.3 ± 1.8 µM	> 100 µM	–
COc1cc2c(cc1OC)C(=O)C(CC1CCN(Cc3ccccc3)CC1)C2 (centres unmarked) [Donepezil, reference compound]	–	–	Transfer latency (TL) ([3]; scopolamine 3 mg kg−1 + donepezil 5 mg kg−1 i.p., 7 days): 15.08 ± 1 s
Cc1ccc(N2CCN(CCC(=O)Nc3nc4ccc(S(C)(=O)=O)cc4s3)CC2)cc1 [Compound 8, N-(6-Methanesulfonyl-benzothiazol-2-yl)-3-(4-p-tolyl-piperazin-1-yl)-propionamide]	20.2 ± 1.44 µM	> 100 µM	–
CS(=O)(=O)c1ccc2nc(NC(=O)CCN3CCN(C(c4ccccc4)c4ccccc4)CC3)sc2c1 [Compound 11, 3-(4-Benzhydryl-piperazin-1-yl)-N-(6-methanesulfonyl-benzothiazol-2-yl)-propionamide]	4.54 µM and 4.55 µM	> 100 µM	–
CS(=O)(=O)c1ccc2nc(NC(=O)CCN3CCN(c4ccc(F)cc4)CC3)sc2c1 [Compound 5, 3-[4-(4-Fluoro-phenyl)-piperazin-1-yl]-N-(6-methanesulfonyl-benzothiazol-2-yl)-propionamide]	18.3 ± 0.777 µM	> 100 µM	–
